Experimental data published in patent publication US20120309699A1, “COMPOUNDS HAVING ANTI-INFLAMMATORY ACTIVITY” (Consejo Superior de Investigaciones Cientificas (CSIC), priority 2009, published 2012).
Entries after “also recorded” stand apart in the source; their conditions may differ.

Experiments:
[1] = tested on: haptoglobin; test: Systemic inflammation marker haptoglobin (DSS model); assay type: in vivo, mice; details: vs DSS group; HED 10 mg
Method: (§1) A model for intestinal inflammation based on the administration of DSS (sodium dextran sulfate) to C57BL/6 mice was used. At the present time there is no consensus about which overall is the best model for experimental colitis. The DSS model has been widely used because it has clinical, morphological and analytical characteristics which up to a point are similar to those specific to patients with ulcerative colitis or Crohn's disease.
(§2) The in vivo inflammation test was carried out using duplicates separated by a number of months. In each test each group of animals (n=8) was fed a standard diet supplemented with 2.3 mg/day/kg (animal weight) of each of the compounds, depending upon the group. This dose assumes the ingestion of 0.05 mg/day (50 μg/day) per mouse (having a mean weight of 22 grams). This dose extrapolated to a human being is equivalent to 10 mg in an adult weighing 70 kg; using the formula HED (human equivalent dose)=animal dose in mg/kg×(animal weight kg/human weight in kg)^0.33.
(§3) In each test the mice were fed for 3 weeks during which 1% DSS was included in their drink. The DSS was maintained for 8 days (and the same food as from the start). Then the DSS was withdrawn and the animals were allowed to recover for another 6 days (again with the same food).
(§4) • Monitoring of weight, food and drink ingestion. The mice in all groups were individually monitored, with weight, quantity of food ingested and water drunk each day being monitored throughout the experimental test. • Blood and water in feces. The water content of feces, as an indication of diarrhea, was evaluated using the difference in weight following evaporation in a stove. Blood was measured using reactive strips based on the guaiacol-peroxidase reaction (HealthCare Diagnosis Inc.). […] The reaction was measured using a scale from 0 (negative result) to 4 (most intense color change). • Length of colon. After sacrifice the colon was obtained from each mouse, extended and measured. […] This was evaluated by spectrophotometry at 460 nm using O-dianisidine reagent and hydrogen peroxide. The change in absorbance at 460 nm was monitored over 10 minutes in a V-630 spectrophotometer (Jasco, Tokyo, Japan). MPO activity was expressed as mU of activity/mg of fresh tissue, comparing the increase in absorbance with a standard straight line obtained using leukocyte myeloperoxidase (Sigma). • Prostaglandins in colonic mucosa. Levels of PGE2 were measured in colonic mucosa homogenates using an immunoenzyme method using a Cayman Chem. kit (USA). • “Antibody array”. […] The signal was detected by chemoluminescence. […] Signal intensities (densitometry) were analyzed using ScanAlyze software. […] The changes in cytokine levels were expressed as mean±SD in arbitrary density units. […]

[2] = tested on: bifidobacteria; test: Microbiota counts in feces: bifidobacteria; assay type: in vivo, mice; details: HED 10 mg
Method: as §1, §2, §3, §4

[3] = tested on: C57BL/6 mice; test: DSS (sodium dextran sulfate) model for intestinal inflammation: colon length, weight, DAI, appearance, colonic architecture; assay type: in vivo; details: after 1% DSS for 8 days; HED 10 mg
Method: as §1, §2, §3
Groups included in the investigation: control (standard food), control-DSS, DSS-resveratrol (RES), DSS-piceid (PIC), DSS-resveratrol-diglucoside (DIGLUC), DSS-piceid-butyrate (BUT), DSS-piceid-octanoate (OCT).
• Monitoring of weight, food and drink ingestion. The mice in all groups were individually monitored, with weight, quantity of food ingested and water drunk each day being monitored throughout the experimental test. • Blood and water in feces. The water content of feces, as an indication of diarrhea, was evaluated using the difference in weight following evaporation in a stove. Blood was measured using reactive strips based on the guaiacol-peroxidase reaction (HealthCare Diagnosis Inc.). The samples were diluted 1:50 in saline solution and applied to the reactive strips. After 60 sec the color was compared with the template provided by the manufacturer. The reaction was measured using a scale from 0 (negative result) to 4 (most intense color change). • Length of colon. After sacrifice the colon was obtained from each mouse, extended and measured. Samples of the colonic mucosa for various tests mentioned below were obtained by scraping. • Myeloperoxidase activity in colonic mucosa. This was evaluated by spectrophotometry at 460 nm using O-dianisidine reagent and hydrogen peroxide. The change in absorbance at 460 nm was monitored over 10 minutes in a V-630 spectrophotometer (Jasco, Tokyo, Japan). MPO activity was expressed as mU of activity/mg of fresh tissue, comparing the increase in absorbance with a standard straight line obtained using leukocyte myeloperoxidase (Sigma). • Prostaglandins in colonic mucosa. Levels of PGE2 were measured in colonic mucosa homogenates using an immunoenzyme method using a Cayman Chem. kit (USA). • “Antibody array”. The “antibody array” kit from RayBiotech (“RayBio Mouse Inflammation Antibody Array 1”) was used to determine cytokines in colonic tissue samples. The “RayBio Mouse inflammation antibody arrays” are a fast and accurate system for determining the expression profile of multiple cytokines (in this case 40) in a very sensitive way. The sensitivity is 100 times greater than that of the ELISA method. The measurement was made in duplicate following the manufacturer's instructions. Membranes were blocked with blocking buffer and then incubated with 300 μg of protein for 2 hours. Finally the membranes were incubated with a cocktail of antibodies conjugated with biotin and then radish peroxidase marked with streptavidin. The signal was detected by chemoluminescence. Images were captured using a CCD camera fitted to a Biorad Chemidoc XRS imaging station. Signal intensities (densitometry) were analyzed using ScanAlyze software. […]

[4] = tested on: fibrinogen; test: Systemic inflammation marker fibrinogen (DSS model); assay type: in vivo, mice; details: vs DSS group; HED 10 mg
Method: as §1, §2, §3, §4

[5] = tested on: pathogenic bacteria (E. coli O157, Salmonella and Listeria monocytogenes Scott A); test: Adhesion of pathogenic bacteria to HT-29 cell cultures; assay type: cell-based, human; details: HT-29, 25 μM/well, vs positive control C+
Method: (§5) We used two cell models for colon cancer to evaluate the anti-adhesion capacity of compounds derived from resveratrol against pathogenic bacteria in food: Caco-2 (a model frequently used to measure the adhesion of microorganisms) and HT-29 (a model frequently used to measure immune response to infections by enteropathogens). Caco-2 and HT-29 cells were grown in EMEM and DMEM respectively, for which 24 well plates were used at 37° C., 5% CO2, 95% air until a single layer of confluent epithelium formed (cell concentration per well 2×10^5 and 6×10^5 respectively). Pathogenic bacteria (E. coli O157, Salmonella and Listeria monocytogenes Scott A) were placed in contact with the various compounds derived from resveratrol for 1 hour and subsequently the bacteria together with the different compounds in a concentration of 25 μM/well were inoculated on the cell cultures, incubating the plates for 2 hours at 37° C., 5% CO2, 95% air. The plates were then washed 3 times with 1 ml of sterile PBS and 1 ml of distilled water with 20% of glycerol was added, and they were frozen at −70° C. to lyse the epithelial cells. […] Concentrations of the various derivatives tested were detected in the digestive tracts of experimental animals and therefore the test lay within the range of physiologically achievable concentrations.

[6] = target: COX-1 (Homo sapiens, UniProt P23219); details: cited from earlier work
Chain of COX-1 (P23219 24-599): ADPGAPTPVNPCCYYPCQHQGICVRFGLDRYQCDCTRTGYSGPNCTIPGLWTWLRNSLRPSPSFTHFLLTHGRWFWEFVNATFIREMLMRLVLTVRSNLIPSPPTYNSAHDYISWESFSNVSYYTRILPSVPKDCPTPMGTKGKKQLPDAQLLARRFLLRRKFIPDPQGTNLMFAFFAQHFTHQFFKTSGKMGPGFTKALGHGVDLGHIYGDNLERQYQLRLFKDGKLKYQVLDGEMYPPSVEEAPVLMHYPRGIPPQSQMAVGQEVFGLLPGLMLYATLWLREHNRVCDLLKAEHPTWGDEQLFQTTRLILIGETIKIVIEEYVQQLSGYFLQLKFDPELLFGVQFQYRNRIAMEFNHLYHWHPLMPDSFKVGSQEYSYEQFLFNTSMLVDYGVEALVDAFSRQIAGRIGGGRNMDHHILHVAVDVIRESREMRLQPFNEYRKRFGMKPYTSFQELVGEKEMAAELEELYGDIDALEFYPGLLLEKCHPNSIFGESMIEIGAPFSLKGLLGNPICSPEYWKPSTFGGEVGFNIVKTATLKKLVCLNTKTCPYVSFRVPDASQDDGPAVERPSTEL

[7] = Time of arrival and concentration of resveratrol in the colon of healthy mice; details: gastric probang, 84 mg/kg resveratrol
[8] = tested on: pathogenic bacteria (E. coli O157, Salmonella and Listeria monocytogenes Scott A); test: Adhesion of pathogenic bacteria to Caco-2 cell cultures; assay type: cell-based, human; details: Caco-2, 25 μM/well, vs positive control C+
Method: as §5

[9] = tested on: E. coli; test: Microbiota counts in feces: E. coli; assay type: in vivo, mice; details: after administration of DSS; HED 10 mg
Method: as §1
(§6) The in vivo inflammation test was carried out using duplicates separated by a number of months. In each test each group of animals (n=8) was fed a standard diet supplemented with 2.3 mg/day/kg (animal weight) of each of the compounds, depending upon the group. This dose assumes the ingestion of 0.05 mg/day (50 μg/day) per mouse (having a mean weight of 22 grams). This dose extrapolated to a human being is equivalent to 10 mg in an adult weighing 70 kg; using the formula HED (human equivalent dose)=animal dose in mg/kg×(animal weight kg/human weight in kg)^0.33. […]
(§7) • Monitoring of weight, food and drink ingestion. The mice in all groups were individually monitored, with weight, quantity of food ingested and water drunk each day being monitored throughout the experimental test. • Blood and water in feces. The water content of feces, as an indication of diarrhea, was evaluated using the difference in weight following evaporation in a stove. Blood was measured using reactive strips based on the guaiacol-peroxidase reaction (HealthCare Diagnosis Inc.). […] The reaction was measured using a scale from 0 (negative result) to 4 (most intense color change). • Length of colon. After sacrifice the colon was obtained from each mouse, extended and measured. […] This was evaluated by spectrophotometry at 460 nm using O-dianisidine reagent and hydrogen peroxide. The change in absorbance at 460 nm was monitored over 10 minutes in a V-630 spectrophotometer (Jasco, Tokyo, Japan). […] Levels of PGE2 were measured in colonic mucosa homogenates using an immunoenzyme method using a Cayman Chem. kit (USA). • “Antibody array”. […] The signal was detected by chemoluminescence. […]

[10] = tested on: enterobacteria; test: Microbiota counts in feces: enterobacteria; assay type: in vivo, mice; details: after administration of DSS; HED 10 mg
Method: as §1, §6, §7

[11] = tested on: COX-2; details: see ES2266271; cited from earlier work

SMILES | Blood haptoglobin levels [1] | Bifidobacteria count in feces ([2]; 3 weeks of supplemented diet, prior to DSS) | General appearance of the mice [3] | Blood fibrinogen levels [4] | Adhesion of pathogenic bacteria to intestinal epithelium [5] | Enzyme activity of COX-1 [6] | Time of maximum resveratrol in the colon [7] | Bifidobacteria count in feces ([2]; after administration of DSS) | Adhesion of pathogenic bacteria to the intestinal epithelium [8] | E. coli count in feces [9] | Enterobacteria count in feces [10] | Transcription of COX-2 [11]
OC[C@H]1O[C@@H](Oc2cc(/C=C/c3ccc(O)cc3)cc(O[C@@H]3O[C@H](CO)[C@@H](O)[C@H](O)[C@H]3O)c2)[C@H](O)[C@@H](O)[C@@H]1O [DIGLUC, trans-resveratrol-3,5-di-O-β-D-glucopyranoside] | clear tendency to improvement | highest count | OCT (D)≈BUT (C)>>RES≈DIGLUC≈PIC (B)>>control-DSS (A) | most notable differences | – | – | – | – | – | – | – | –
Oc1ccc(/C=C/c2cc(O)cc(O)c2)cc1 [RES, trans-resveratrol, reference compound] | clear tendency to improvement | – | OCT (D)≈BUT (C)>>RES≈DIGLUC≈PIC (B)>>control-DSS (A); also recorded: better appearance than the control-DSS | clear tendency to improvement | reduced the adhesion | inhibits the enzyme activity of COX-1 | around 5 hours | slightly higher counts | reduced the adhesion | clear reduction | clear reduction | inhibits the transcription of COX-2
OC[C@H]1O[C@@H](Oc2cc(O)cc(/C=C/c3ccc(O)cc3)c2)[C@H](O)[C@@H](O)[C@@H]1O [PIC, resveratrol-3-O-glucoside, reference compound] | – | – | OCT (D)≈BUT (C)>>RES≈DIGLUC≈PIC (B)>>control-DSS (A) | – | – | – | – | – | – | – | – | –
